# Source: US9062041B2 (Bayer Intellectual Property GmbH, priority 2011, dated 2015)
# Where two headings read alike, the source gives them in different places.
# Experiments:
# [1] = system: cumulus-oocyte complexes; assay: Cumulus expansion test in vitro; assay type: cell-based, mice (strain: B6D2F1); conditions: for inhibition at 1 µM / inhibition at 0.5 µM: Mus musculus, 0.3 μM PGE2 for stimulation; for inhibition at 1 µM: read-out: % reduction at 1 μM (reduction in the cumulus expansion); for inhibition at 0.5 µM: read-out: % reduction at 0.5 μm (reduction in the cumulus expansion)
# Experimental: 4.2. Cumulus Expansions Test In Vitro In immature female mice (strain: B6D2F1 from Charles River), at an age of 14-18 days, the folliculogenesis was induced by a single administration (intraperitoneal) of 10 IU of PMSG (pregnant mare serum gonadotropin; Sigma G-4877, Lot 68H0909). 47-50 hours after the injection, the ovaries were removed and the cumulus-oocyte complexes removed. At this stage, the cumulus complex is not yet expanded. The cumulus-oocyte complexes were now incubated for 20-24 hours with prostaglandin E2 (PGE) (0.3 μM), vehicle control (ethanol) or test substances. Medium: alpha-MEM medium with 0.1 mM IBMX, pyruvate (0.23 mM), glutamine (2 mM), pen/strep 100 IU/ml pen. and 100 μg/ml strep.), HSA (8 mg/ml) and foetal bovine serum (FBS, 10%). The cumulus expansion was then established through the subdivision into four stages (after Vanderhyden et al. Dev Biol. 1990 August; 140(2):307-317).
# [2] = biological target: EP4 subtype of the human PGE2 receptor (Homo sapiens, UniProt P35408); assay: cAMP antagonism test on the human EP4 receptor (HTRF cAMP detection); assay type: cell-based; conditions: selectivity towards hEP4, IC50 measured by cAMP antagonism test
# Chain of EP4 subtype of the human PGE2 receptor (P35408 whole entry): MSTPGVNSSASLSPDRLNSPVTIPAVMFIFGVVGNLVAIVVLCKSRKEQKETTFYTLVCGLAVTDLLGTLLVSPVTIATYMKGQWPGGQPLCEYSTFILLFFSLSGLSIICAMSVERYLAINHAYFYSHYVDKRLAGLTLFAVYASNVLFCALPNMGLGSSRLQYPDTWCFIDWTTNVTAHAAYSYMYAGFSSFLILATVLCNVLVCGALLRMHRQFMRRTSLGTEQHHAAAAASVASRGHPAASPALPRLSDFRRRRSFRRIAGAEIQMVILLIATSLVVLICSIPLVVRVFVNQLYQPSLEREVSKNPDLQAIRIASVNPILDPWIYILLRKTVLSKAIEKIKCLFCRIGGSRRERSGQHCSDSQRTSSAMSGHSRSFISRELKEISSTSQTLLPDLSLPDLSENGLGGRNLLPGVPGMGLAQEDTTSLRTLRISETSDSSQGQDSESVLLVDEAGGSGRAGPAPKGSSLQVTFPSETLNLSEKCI
# Procedure, shortened: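 Cells expressing human EP4 preincubated 20 min at RT with compound (0.8 nM–16.5 μM), then stimulated with PGE2 (0.3 nM in 3× solution, with IBMX) 60 min at RT. After lysis, cAMP measured by HTRF competition (665/620 nm ratio); antagonism seen as rise in FRET signal.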
# [3] = biological target: EP2 subtype of the human PGE2 receptor (Homo sapiens, UniProt P43116); assay: cAMP antagonism test on the human EP2 receptor (HTRF cAMP detection); assay type: cell-based; conditions: hEP2 receptor
# Chain of EP2 subtype of the human PGE2 receptor (P43116 whole entry): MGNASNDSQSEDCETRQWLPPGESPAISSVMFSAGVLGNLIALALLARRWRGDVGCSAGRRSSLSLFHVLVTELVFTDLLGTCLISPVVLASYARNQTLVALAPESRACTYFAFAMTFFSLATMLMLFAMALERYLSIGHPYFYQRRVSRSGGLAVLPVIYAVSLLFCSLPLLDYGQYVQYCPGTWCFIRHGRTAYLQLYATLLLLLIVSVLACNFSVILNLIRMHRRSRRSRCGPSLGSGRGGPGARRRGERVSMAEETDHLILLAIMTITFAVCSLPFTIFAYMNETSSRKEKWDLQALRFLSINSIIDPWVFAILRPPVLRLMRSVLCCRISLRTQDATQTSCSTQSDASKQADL
# Procedure, shortened: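 Cells expressing human EP2 preincubated 20 min at RT with compound (0.8 nM–16.5 μM), then stimulated 60 min with PGE2 (3× solution 1.5 nM) in PBS-IBMX. After 20 min lysis, cAMP measured by competitive HTRF with cAMP-d2 and Eu cryptate anti-cAMP antibody (665/620 nm ratio).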
smiles,measurement,setting,value
"COCCNC(=O)c1ccc2nn(CC3CCN(C(=O)c4ccc(-c5ccc(F)cc5)cc4F)CC3)cc2c1C [Example 42, 2-({1-[(3,4′-difluoro-biphenyl-4-yl)-carbonyl]piperidin-4-yl}methyl)-N-(2-methoxyethyl)-4-methyl-2H-indazol-5-carboxamide]",inhibition at 1 µM,[1],79%
same,inhibition at 0.5 µM,[1],48%
same,Selectivity hEP2/hEP4,[2],xxx (xxx > 100)
same,IC50,[3]; read-out: Antagonism hEP2 IC50,4.75 nM
"COCCNC(=O)c1ccc2nn(CC3CCN(C(=O)c4ccc(Oc5ccc(C(F)(F)F)cc5)cc4)CC3)cc2c1C [Example 17, N-(2-methoxyethyl)-4-methyl-2-[(1-{4-[4-(trifluoromethyl)-phenoxy]benzoyl}-piperidin-4-yl)-methyl]-2H-indazol-5-carboxamide]",suppression of the cumulus expansion,"[1]; 0.5 μM, PGE2 0.3 μM",ca. 70%
same,inhibition at 1 µM,[1],76%
same,inhibition at 0.5 µM,[1],71%
same,Selectivity hEP2/hEP4,[2],xxx (xxx > 100)
same,IC50,[3]; read-out: Antagonism hEP2 IC50,3.44 nM
same,IC50,[3]; read-out: IC50,3.4 nM
"Cc1c(C(=O)NCC(F)(F)F)ccc2nn(CC3CCN(C(=O)c4ccc(Oc5ccc(F)cc5)cc4)CC3)cc12 [Example 283, 2-({1-[4-(4-fluorophenoxy)benzoyl]piperidin-4-yl}methyl)-4-methyl-N-(2,2,2-trifluoroethyl)-2H-indazol-5-carboxamide]",inhibition at 1 µM,[1],26%
same,inhibition at 0.5 µM,[1],25%
same,Selectivity hEP2/hEP4,[2],xxx (xxx > 100)
same,IC50,[3]; read-out: Antagonism hEP2 IC50,65.5 nM
"COCCNC(=O)c1ccc2nn(CC3CN(C(=O)c4ccc(Cl)cc4)C3)cc2c1C [Example 117, 2-{[1-(4-chlorobenzoyl)azetidin-3-yl]methyl}-N-(2-methoxyethyl)-4-methyl-2H-indazol-5-carboxamide]",inhibition at 1 µM,[1],54%
same,inhibition at 0.5 µM,[1],30%
same,Selectivity hEP2/hEP4,[2],xxx (xxx > 100)
same,IC50,[3]; read-out: Antagonism hEP2 IC50,17.8 nM
